Results: patent US11447504B2, “Macrocyclic chlorine substituted indole derivatives” (Bayer Aktiengesellschaft, priority 2017, dated 2022)
pEC50, pIC50: −log10 of the molar value. Structures can show the parent of a compound that is named as a salt. Where two headings read alike, the source gives them in different places.

Key:
MV-4-11 = assay: Antiproliferation assay 7, MV-4-11; type: cell-based; settings: MV-4-11 cells, CellTiter-Glo, read-out: Antiproli MV-4-11 IC50 median
Outline: (§1)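 CellTiter-Glo luminescence readout; 72 h compound exposure, 37° C, humidified. Day 0 reference plate read at plating for time-zero baseline.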

SUDHL5 [1] = assay: Induction of caspase-3/7 activity (Assay 4), SUDHL5; type: cell-based; settings: SUDHL5 cells
Outline: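 DLBCL cells treated with compounds for 3 hours at 37° C. Caspase-3/7 activity measured by Caspase-Glo 3/7 luminescence, with medium-only background subtracted.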

AMO-1 = assay: Antiproliferation assay 7, AMO-1; type: cell-based; settings: AMO-1 cells, CellTiter-Glo, read-out: Antiproli AMO-1 IC50 median
Outline: as §1

SUDHL5 [2] = assay: Antiproliferation assay 7, SUDHL5; type: cell-based; settings: SUDHL5 cells, CellTiter-Glo, read-out: Antiproli SUDHL5 IC50 (median)
Outline: as §1

SUDHL5 [3] = assay: Induction of cytotoxicity (Assay 6), SUDHL5
SUDHL10 [4] = assay: Induction of caspase-3/7 activity (Assay 4), SUDHL10; type: cell-based; settings: SUDHL10 cells
Outline: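 Luminescent Caspase-Glo 3/7 read-out after a 3 h, 37 °C compound exposure of the DLBCL line SUDHL10. Values are background-corrected using medium-only wells.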

SUDHL10 [5] = assay: Induction of cytotoxicity (Assay 6), SUDHL10
MCL-1 = MCL-1 (Homo sapiens (Human), UniProt Q07820, K194A/K197A/R201A); assay: Protein-protein interaction assay MCL-1/Noxa BH3 peptide (MCL-1 Assay, TR-FRET); type: binding; settings: read-out: MCL-1 Assay IC50 (median)
Description: The dose-dependent inhibition by the compounds described in this invention of the interaction between MCL-1 and the BH3 domain of Noxa (both human) was determined using a steady state binding competition assay with time-resolved fluorescence energy transfer (TR-FRET) readout. […] The MBP-MCL-1 was purchased from Beryllium (Bedford, Mass., USA). The expression and purification of this protein construct has been described elsewhere (DOI:10.1371/journal.pone.0125010). The Noxa BH3-derived peptide can be obtained from e.g. Biosyntan (Berlin, Germany).
For that, 100-fold concentrated DMSO solutions were prepared by serial dilutions (1:3.4) of a 2 mM stock solution in a clear, 384-well microtiter plate (Greiner Bio-One, Frickenhausen, Germany). From there, 50 nl were transferred in a dark test plate (Greiner Bio-One, Frickenhausen, Germany). […] This was followed by a 10-minute incubation step at 22° C. for pre-equilibration of the putative complex between MBP-MCL-1 and the compounds.
The mixture was incubated in the dark for one hour at 22° C. and then overnight at 4° C.
The resulting data (ratio) were normalized, taking 0% inhibition as the mean value of control measurements (usually 32 data points) where all reagents were included. In this case 50 nl DMSO were used instead of compounds. […] IC50 values were determined by regression analysis based on a 4 parameter equation (minimum, maximum, IC50, Hill; Y=Max+(Min−Max)/(1+(X/IC50)^Hill) using the Screener Software (Genedata).

SUDHL10 [6] = assay: Antiproliferation assay 7, SUDHL10; type: cell-based; settings: SUDHL10 cells, CellTiter-Glo, read-out: Antiproli SUDHL10 IC50 (median)
Description: Assessment of the Anti-Proliferative Effect of Compounds in Different Cell Lines
The impact of compounds on the proliferation of different cell lines was assessed using the CellTiter-Glo® Luminescent Cell Viability reagent from Promega (G7573).
In parallel, cells were plated in a reference (day 0) plate for time zero determination.
Rim wells were excluded. The cells were incubated for 72 hours in a humidified incubator at 37° C. The day 0 plate was measured by adding 30 μL/well of CTG solution (CellTiter-Glo® Luminescent Cell Viability reagent, Promega G7573) to time zero wells in the reference plate followed by a 10 minutes incubation and luminescence reading at 0.1 ms. using the PHERAstar FS microplate reader (BMG Labtech).
After 72 hours incubation, the treated plates were measured in the same way as the day 0 plate mentioned above.

HMC-1-8 = assay: Antiproliferation assay 7, HMC-1-8; type: cell-based; settings: HMC-1-8 cells, CellTiter-Glo, read-out: Antiproli HMC-1-8 IC50 median
Outline: as §1

[7] = 3 hours, Caspase-Glo 3/7, read-out: Caspase SUDHL5 EC50 (median)
[8] = read-out: Cytotox SUDHL5 IC50 (median), SUDHL5 cells, 5 hours, CellTiter-Glo
[9] = 3 hours, Caspase-Glo 3/7, read-out: Caspase SUDHL10 EC50 (median)
[10] = read-out: Cytotox SUDHL10 IC50 (median), SUDHL10 cells, 5 hours, CellTiter-Glo
[11] = Homo sapiens, SU-DHL-5, 3 h, Caspase-Glo 3/7, read-out: Caspase SUDHL5 EC50 (median)
[12] = Homo sapiens, SU-DHL-5, 5 h, read-out: Cytotox SUDHL5 IC50 (median), SUDHL5 cells, 5 hours, CellTiter-Glo
[13] = Homo sapiens, SU-DHL10, 3 h, Caspase-Glo 3/7, read-out: Caspase SUDHL10 EC50 (median)
[14] = Homo sapiens, SU-DHL10, 5 h, read-out: Cytotox SUDHL10 IC50 (median), SUDHL10 cells, 5 hours, CellTiter-Glo

Chain of MCL-1 (Q07820 whole entry K194A/K197A/R201A, looked up, the tested form may be a part): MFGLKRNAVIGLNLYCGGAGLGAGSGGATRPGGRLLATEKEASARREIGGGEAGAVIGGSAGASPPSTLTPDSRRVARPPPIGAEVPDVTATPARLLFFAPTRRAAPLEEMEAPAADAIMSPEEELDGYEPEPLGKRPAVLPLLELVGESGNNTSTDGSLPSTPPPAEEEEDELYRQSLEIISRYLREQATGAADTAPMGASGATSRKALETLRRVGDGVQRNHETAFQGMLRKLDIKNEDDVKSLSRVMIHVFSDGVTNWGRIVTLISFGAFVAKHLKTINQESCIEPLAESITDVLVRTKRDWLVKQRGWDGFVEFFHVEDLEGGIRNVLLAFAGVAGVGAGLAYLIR

SMILES | pEC50 (SUDHL5 [1]; [7]) | pIC50 (SUDHL5 [2]; 72 hours) | pEC50 (SUDHL10 [4]; [9]) | pIC50 (MCL-1) | pIC50 (MV-4-11; Homo sapiens, MV4-11, 72 h) | pEC50 (SUDHL5 [1]; [11]) | pIC50 (SUDHL5 [2]; Homo sapiens, SU-DHL-5, 72 h) | pEC50 (SUDHL10 [4]; [13]) | pIC50 (SUDHL10 [6]; Homo sapiens, SU-DHL10, 72 h) | pIC50 (SUDHL10 [6]; 72 hours) | pIC50 (MV-4-11; 72 hours) | pIC50 (AMO-1; 72 hours) | pIC50 (SUDHL5 [3]; [8]) | pIC50 (SUDHL10 [5]; [10]) | pIC50 (AMO-1; Homo sapiens, AMO1, 72 h) | pIC50 (SUDHL5 [3]; [12]) | pIC50 (SUDHL10 [5]; [14]) | pIC50 (HMC-1-8; 72 h) | pIC50 (HMC-1-8; 72 hours)
Cc1c2c(nn1C)CN(C)CCCCn1c(C(=O)O)c(CCCOc3cccc4cc(F)ccc34)c3ccc(Cl)c-2c31 (single isomer, unassigned; enantiomer 2) [Example 32, (−)-4-chloro-7-{3-[(6-fluoronaphthalen-1-yl)oxy]propyl}-2,3,14-trimethyl-10,11,12,13,14,15-hexahydro-2H-pyrazolo[3′,4′:8,9][1,6]diazacycloundecino[10,11,1-hi]indole-8-carboxylic acid-N-ethylethanamine Salt (Enantiomer 2)] | 4.96 | 5.22 | 4.60 | 7.59 |  |  |  |  |  |  | 4.85 | 4.71 | 5.03 | 4.85 |  |  |  |  | 
Cc1c2c(nn1C)COCCCCn1c(C(=O)O)c(CCCOc3cccc4cc(F)ccc34)c3ccc(Cl)c-2c31 (racemic) [Example 14, (rac)-4-chloro-7-{3-[(6-fluoronaphthalen-1-yl)oxy]propyl}-2,3-dimethyl-2,10,11,12,13,15-hexahydropyrazolo[4′,3′:9,10][1,6]oxazacycloundecino[8,7,6-hi]indole-8-carboxylic Acid] |  |  |  |  | 5.91 | 6.60 | 6.29 | 6.39 | 6.38 |  |  |  |  |  | 6.13 | 6.41 | 6.21 |  | 
Cc1c2c(nn1CCCN1CCN(C)CC1)COCCCCn1c(C(=O)O)c(CCCOc3cccc4ccccc34)c3ccc(Cl)c-2c31 (single isomer, unassigned; enantiomer 2) [Example 50, (−)-4-chloro-3-methyl-2-[3-(4-methylpiperazin-1-yl)propyl]-7-{3-[(naphthalen-1-yl)oxy]propyl}-2,10,11,12,13,15-hexahydropyrazolo[4′,3′:9,10][1,6]oxazacycloundecino[8,7,6-hi]indole-8-carboxylic Acid (Enantiomer 2)] | 4.89 | 5.17 | 4.92 | 7.82 |  |  |  |  |  |  |  | 4.88 | 5.08 | 5.07 |  |  |  |  | 4.91
Cc1nn(C)c2c1-c1c(Cl)ccc3c(CCCOc4cccc5ccccc45)c(C(=O)O)n(c13)C/C=C\COC2 (racemic) [Example 1, (rac)-(11Z)-4-chloro-1,3-dimethyl-7-[3-(naphthalen-1-yloxy)propyl]-1,10,13,15-tetrahydropyrazolo[4′,3′:9,10][1,6]oxazacycloundecino[8,7,6-hi]indole-8-carboxylic Acid] |  |  |  |  |  | 5.54 | 5.24 | 5.26 | 5.24 |  |  |  |  |  |  | 5.54 |  |  | 
Cc1c2c(nn1CCCN1CCN(C)CC1)COCCCCn1c(C(=O)O)c(CCCOc3cccc4ccccc34)c3ccc(Cl)c-2c31 (racemic) [Example 48, (rac)-4-chloro-3-methyl-2-[3-(4-methylpiperazin-1-yl)propyl]-7-{3-[(naphthalen-1-yl)oxy]propyl}-2,10,11,12,13,15-hexahydropyrazolo[4′,3′:9,10][1,6]oxazacycloundecino[8,7,6-hi]indole-8-carboxylic Acid] |  |  |  | 8.77 | 6.04 | 6.23 | 6.24 | 6.23 |  |  |  |  |  |  | 5.83 | 6.23 | 6.00 |  | 

Continued, in another order:

pEC50 (SUDHL5 [1]; [7]) | pIC50 (SUDHL5 [2]; 72 hours) | pEC50 (SUDHL10 [4]; [9]) | pIC50 (MCL-1) | pIC50 (MV-4-11; Homo sapiens, MV4-11, 72 h) | pEC50 (SUDHL5 [1]; [11]) | pIC50 (SUDHL5 [2]; Homo sapiens, SU-DHL-5, 72 h) | pEC50 (SUDHL10 [4]; [13]) | pIC50 (SUDHL10 [6]; Homo sapiens, SU-DHL10, 72 h) | pIC50 (SUDHL10 [6]; 72 hours) | SMILES | pIC50 (MV-4-11; 72 hours) | pIC50 (AMO-1; 72 hours) | pIC50 (SUDHL5 [3]; [8]) | pIC50 (SUDHL10 [5]; [10]) | pIC50 (AMO-1; Homo sapiens, AMO1, 72 h) | pIC50 (SUDHL5 [3]; [12]) | pIC50 (SUDHL10 [5]; [14]) | pIC50 (HMC-1-8; 72 h) | pIC50 (HMC-1-8; 72 hours)
 |  |  | 8.72 |  | 6.00 | 5.89 | 5.89 |  |  | Cc1c2c(nn1C)OCCCCCn1c(C(=O)O)c(CCCOc3cccc4cc(F)ccc34)c3ccc(Cl)c-2c31 (single isomer, unassigned; enantiomer 1) [Example 84, 4-chloro-7-{3-[(6-fluoronaphthalen-1-yl)oxy]propyl}-2,3-dimethyl-11,12,13,14-tetrahydro-2H,10H-pyrazolo[3′,4′:2,3][1,6]oxazacycloundecino[4,5,6-hi]indole-8-carboxylic Acid—Enantiomer 1] |  |  |  |  | 6.64 | 5.96 | 5.82 | 4.92 | 
 |  |  |  | 6.15 | 6.57 | 6.48 | 6.21 | 6.55 |  | CCc1c2c(nn1C)CN(C)CCCCn1c(C(=O)O)c(CCCOc3cccc4cc(F)ccc34)c3ccc(Cl)c-2c31 (racemic) [Example 5, (rac)-4-chloro-3-ethyl-7-{3-[(6-fluoronaphthalen-1-yl)oxy]propyl}-2,14-dimethyl-10,11,12,13,14,15-hexahydro-2H-pyrazolo[3′,4′:8,9][1,6]diazacycloundecino[10,11,1-hi]indole-8-carboxylic Acid] |  |  |  |  | 6.21 | 6.54 | 6.28 |  | 
 |  |  | 8.70 |  | 6.40 | 6.39 | 6.22 |  |  | CCc1c2c(nn1C)N(CCC1CCOCC1)CCCCCn1c(C(=O)O)c(CCCOc3cccc4cc(F)ccc34)c3ccc(Cl)c-2c31 (racemic) [Example 80, (rac)-4-chloro-3-ethyl-7-{3-[(6-fluoronaphthalen-1-yl)oxy]propyl}-2-methyl-15-[2-(oxan-4-yl)ethyl]-10,11,12,13,14,15-hexahydro-2H-pyrazolo[4′,3′:4,5][1,6]diazacycloundecino[3,2,1-hi]indole-8-carboxylic Acid] |  |  |  |  | 6.57 | 6.30 | 6.28 | 5.40 | 
< 4.55 | 4.89 | < 4.48 |  |  |  |  |  |  | 4.92 | Cc1nn(C)c2c1-c1c(Cl)ccc3c(CCCOc4cccc5ccccc45)c(C(=O)O)n(c13)CCCCOC2 (single isomer, unassigned; enantiomer 2) [Example 4, 4-chloro-1,3-dimethyl-7-[3-(naphthalen-1-yloxy)propyl]-1,10,11,12,13,15-hexahydropyrazolo[4′,3′:9,10][1,6]oxazacycloundecino[8,7,6-hi]indole-8-carboxylic Acid (Enantiomer 2)] |  |  | 4.59 | < 4.48 |  |  |  |  | 
